Source: patent US20240269139A1, “COMPOUNDS FOR TARGETED PROTEIN DEGRADATION OF KINASES” (DANA-FARBER CANCER INSTITUTE, INC., priority 2020, published 2024)
Read-outs that look alike come from different tables or passages of the source.

Legend:
Format in all cases: cell-based
[1] = target: protein kinases (human kinome) (Homo sapiens, UniProt P41240); conditions: experiment wp047
Text: (§1) Although development of targeted protein degraders requires a POI binder, among already-liganded proteins such as kinases, it was hypothesized that different targets would have a different propensity for current approaches to degrader-mediated destruction, which was termed ‘degradability’. […] It was rationalized that the probability of identifying the same kinase as a false positive in multiple treatments is low, therefore this analysis served to also assess the robustness of our data and subsequent interpretations. […] Overall, 62 protein kinases were degraded in more than 10 independent treatments, and remarkably, 9 of these (CDK4, AURKA, FER, WEE1, BLK. LIMK2, CDK6, GAK, LIMK1) were each degraded in at least 40 of the 154 independent treatments, emphasizing their predisposition to induced degradation (FIG. 1G; Appendix I).
(§2) Next, the frequency of degradation assessment was corrected for over-representation of molecules in the full dataset by omitting replicate profiling of compounds under different experimental conditions, to remove any bias. […] Unsurprisingly, the top degradable kinases mirror those from the previous analysis (CDK4, AURKA, FER, WEE1, BLK), confirming that in sufficiently large datasets, even with over-representation of certain molecules, frequency of degradation is a good measure of general tractability.

[2] = target: T1, protein kinases (human kinome) (Homo sapiens, UniProt P42680); conditions: TEC (P42680), experiment wp047
T1 sequence (P42680 1-631): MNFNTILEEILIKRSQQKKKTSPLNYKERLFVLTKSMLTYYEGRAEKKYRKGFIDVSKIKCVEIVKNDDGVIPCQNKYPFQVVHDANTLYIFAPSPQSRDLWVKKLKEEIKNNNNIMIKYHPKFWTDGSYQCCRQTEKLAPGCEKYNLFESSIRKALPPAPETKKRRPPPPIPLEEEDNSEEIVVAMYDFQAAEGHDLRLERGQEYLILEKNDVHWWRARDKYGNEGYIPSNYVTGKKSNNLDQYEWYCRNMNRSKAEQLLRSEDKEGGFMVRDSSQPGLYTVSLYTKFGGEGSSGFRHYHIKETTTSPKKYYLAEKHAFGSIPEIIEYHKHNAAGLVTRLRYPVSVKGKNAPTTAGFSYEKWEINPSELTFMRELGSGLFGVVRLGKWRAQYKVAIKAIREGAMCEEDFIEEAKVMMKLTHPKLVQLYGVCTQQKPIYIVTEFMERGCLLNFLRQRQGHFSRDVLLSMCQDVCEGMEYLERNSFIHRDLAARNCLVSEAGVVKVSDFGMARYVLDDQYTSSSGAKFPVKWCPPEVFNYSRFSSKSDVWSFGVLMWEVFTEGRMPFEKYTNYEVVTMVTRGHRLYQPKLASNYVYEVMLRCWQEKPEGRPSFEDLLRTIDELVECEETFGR
Text: as §1, §2

[3] = target: protein kinases (human kinome) (Homo sapiens, UniProt P51451)
Chain of protein kinases (human kinome) (Homo sapiens, UniProt P51451) (P51451 whole entry): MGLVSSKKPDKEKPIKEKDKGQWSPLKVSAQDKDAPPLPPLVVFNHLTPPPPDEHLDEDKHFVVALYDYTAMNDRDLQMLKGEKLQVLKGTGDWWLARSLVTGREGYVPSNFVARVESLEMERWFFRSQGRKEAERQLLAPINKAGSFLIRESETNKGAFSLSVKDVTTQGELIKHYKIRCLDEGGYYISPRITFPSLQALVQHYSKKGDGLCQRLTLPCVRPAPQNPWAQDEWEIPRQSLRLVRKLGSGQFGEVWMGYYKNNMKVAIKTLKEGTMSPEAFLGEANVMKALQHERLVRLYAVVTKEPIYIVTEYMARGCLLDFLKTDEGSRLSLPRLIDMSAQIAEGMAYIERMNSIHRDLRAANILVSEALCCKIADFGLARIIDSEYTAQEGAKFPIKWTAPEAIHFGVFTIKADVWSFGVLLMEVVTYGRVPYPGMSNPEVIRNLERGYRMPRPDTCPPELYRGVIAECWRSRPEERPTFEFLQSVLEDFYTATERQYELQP
Text: as §1, §2

[4] = tested on: protein kinases (human kinome)
Text: as §1, §2

Chain of protein kinases (human kinome) (Homo sapiens, UniProt P41240) (P41240 whole entry): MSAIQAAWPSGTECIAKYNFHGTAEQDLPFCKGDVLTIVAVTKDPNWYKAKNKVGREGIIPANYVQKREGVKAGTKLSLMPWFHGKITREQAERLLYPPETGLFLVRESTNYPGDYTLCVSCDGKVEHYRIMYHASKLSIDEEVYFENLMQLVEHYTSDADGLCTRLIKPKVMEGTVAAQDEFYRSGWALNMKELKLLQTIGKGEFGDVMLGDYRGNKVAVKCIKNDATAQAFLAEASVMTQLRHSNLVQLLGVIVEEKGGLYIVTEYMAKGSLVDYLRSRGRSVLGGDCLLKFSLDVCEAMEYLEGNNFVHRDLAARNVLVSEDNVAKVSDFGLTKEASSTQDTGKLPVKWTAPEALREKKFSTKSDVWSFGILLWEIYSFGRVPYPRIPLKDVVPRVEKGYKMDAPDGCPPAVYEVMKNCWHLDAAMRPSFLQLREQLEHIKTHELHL

For `Nc1ncnc2c1c(-c1ccc(Oc3ccccc3)cc1)nn2[C@@H]1CCCN(C(=O)CCCN2CCN(CCNC(=O)CCOCCOCCNc3cccc4c3C(=O)N(C3CCC(=O)NC3=O)C4=O)CC2)C1` (some centres unmarked) [DD.03.119], the “logFC of CSK” value ([1]; Accession P41240) was −1.786, the “logFC CSK” value ([1]; CSK (P41240), down) was −1.786 and the logFC [2] was −2.272. The logFC ([2]; direction down) was −2.272, the “logFC of BLK” value ([3]; BLK P51451, experiment wp047) was −1.859 and the “logFC of BLK (P51451)” value ([3]; Experiment wp047, down) was −1.859. The “logFC FYN” value ([4]; Accession P06241-2, experiment wp047) was −0.8669, the “logFC of SRC” value ([4]; Accession P12931-2, experiment wp047) was −0.6128 and the “logFC FYN” value ([4]; FYN P06241-2, experiment wp047) was −0.8669. For the same compound, the “logFC LCK” value ([4]; LCK, accession P06239-3, experiment wp047, direction of change down) was −1.787, the logFC ([4]; SRC (P12931-2) protein abundance, degrader vs DMSO, down) was −0.6128 and the “logFC ABL2 (P42684-5)” value ([4]; experiment wp047) was −1.047. The “logFC of ABL2 (P42684-5)” value ([4]; experiment wp047) was −1.047 and the “logFC LCK (P06239-3)” value ([4]; experiment wp047, direction of change down) was −1.787.
